32 compounds from patent US20240166652A1, “MODULATORS OF THE INTEGRATED STRESS PATHWAY” (Calico Life Sciences LLC, priority 2017, published 2024) can be followed below.

Usually EC50 stands for the concentration that produces a half-maximal response.

This assay concerns ATF4 luciferase reporter in HEK293T cells. Description: ATF4-Luc assay (ATF4 luciferase reporter, tunicamycin-treated HEK293T cells). The assay is classed as cell-based, human. The following applies: Homo sapiens, HEK-293T; HEK293T cells carrying the ATF4 luciferase reporter, 1 μg/mL tunicamycin, 7 hours. On the technique in general: A reporter such as luciferase makes a cellular process visible.
In the case of `O=C(COc1ccc2c(c1)OC(F)(F)O2)NC12CCC(NC(=O)COc3ccc4c(c3)OC(F)(F)O4)(CC1)[C@@H](O)C2` [Compound 542, N,N′-[(2S)-2-hydroxybicyclo[2.2.2]octane-1,4-diyl]bis{2-[(2,2-difluoro-2H-1,3-benzodioxol-5-yl)oxy]acetamide}], the EC50 was less than 10 nM.
Take `O=C(CCCc1cccc(Cl)c1)NC12CC(NC(=O)COc3ccc(Cl)c(F)c3)(C1)C2` [Compound 543, N-{3-[2-(4-chloro-3-fluorophenoxy)acetamido]bicyclo[1.1.1]pentan-1-yl}-4-(3-chlorophenyl)butanamide]: the EC50 lay within 50 to 250 nM.
`O=C(COc1ccc(F)c(Cl)c1)NC12CCC(NC(=O)COc3ccc(Cl)c(Cl)c3)(CC1)[C@@H](O)C2` [Compound 544, 2-(3-chloro-4-fluorophenoxy)-N-{(3S)-4-[2-(3,4-dichlorophenoxy)acetamido]-3-hydroxybicyclo[2.2.2]octan-1-yl}acetamide]: the EC50 was less than 10 nM.
With `O=C(COc1ccc(F)c(Cl)c1)NC12CCC(NC(=O)COc3ccc(Cl)c(F)c3)(CC1)[C@@H](O)C2` [Compound 545, 2-(4-chloro-3-fluorophenoxy)-N-{(2S)-4-[2-(3-chloro-4-fluorophenoxy)acetamido]-2-hydroxybicyclo[2.2.2]octan-1-yl}acetamide], the EC50 was less than 10 nM.
Turning to `O=C(COc1ccc(Cl)cc1)NC12CC(NC(=O)COc3ccc(F)c(Cl)c3)(C1)C2` [Compound 546, 2-(3-chloro-4-fluorophenoxy)-N-{3-[2-(4-chlorophenoxy)acetamido]bicyclo[1.1.1]pentan-1-yl}acetamide], the EC50 is less than 10 nM.
As for `O=C(COc1ccc(F)c(Cl)c1)NC12CC(NC(=O)COc3ccc(F)c(Cl)c3)(C1)C2` [Compound 547, N,N′-(bicyclo[1.1.1]pentane-1,3-diyl)bis[2-(3-chloro-4-fluorophenoxy)acetamide]], the EC50 was less than 10 nM.
Under `O=C(COc1ccc(Cl)c(F)c1)NC12CCC(NC(=O)COc3ccc(Cl)c(F)c3)(CC1)C(O)C2O` (centres unmarked) [Compound 548, N,N′-(2,3-dihydroxybicyclo[2.2.2]octane-1,4-diyl)bis[2-(4-chloro-3-fluorophenoxy)acetamide]] stands less than 10 nM; under `O=C(COc1cccc(F)c1)NC12CCC(NC(=O)COc3cccc(F)c3)(CC1)[C@@H](O)C2` [Compound 549, N,N′-[(2S)-2-hydroxybicyclo[2.2.2]octane-1,4-diyl]bis[2-(3-fluorophenoxy)acetamide]], 50 to 250 nM; under `O=C(COc1ccc(F)cc1)NC12CCC(NC(=O)COc3ccc(F)cc3)(CC1)[C@@H](O)C2` [Compound 550, N,N′-[(2S)-2-hydroxybicyclo[2.2.2]octane-1,4-diyl]bis[2-(4-fluorophenoxy)acetamide]], less than 10 nM.
`O=C(COc1ccc(Cl)c(F)c1)NC12CC(NCc3ccccc3)(C1)C2` [Compound 551, N-[3-(benzylamino)bicyclo[1.1.1]pentan-1-yl]-2-(4-chloro-3-fluorophenoxy)acetamide]: the EC50 lay in the range of 500 to 2000 nM.
In the case of `O=C(COc1ccc(Cl)c(F)c1)NC12CCC(NC(=O)COc3ccc(Cl)c(F)c3)(CC1)[C@@H](C(=O)O)C2` [Compound 558, (2S)-1,4-bis[2-(4-chloro-3-fluorophenoxy)acetamido]bicyclo[2.2.2]octane-2-carboxylic Acid], the EC50 was in the range of 500 to 2000 nM.
`O=C(COc1ccc(Cl)c(F)c1)NC12CCC(NC(=O)COc3ccc(Cl)c(F)c3)(CC1)[C@H](C(=O)O)C2` [Compound 559, (2R)-1,4-bis[2-(4-chloro-3-fluorophenoxy)acetamido]bicyclo[2.2.2]octane-2-carboxylic Acid]: the EC50 lay within 500 to 2000 nM.
Consider `O=C(COc1ccc(Cl)c(F)c1)NC12CCC(NC(=O)COc3ccc(Cl)c(F)c3)(CC1=O)C(=O)C2` [Compound 561, N,N′-(2,5-dioxobicyclo[2.2.2]octane-1,4-diyl)bis[2-(4-chloro-3-fluorophenoxy)acetamide]], for which the EC50 was less than 10 nM.
With `COC(=O)[C@H]1CC2(NC(=O)COc3ccc(Cl)c(F)c3)CCC1(NC(=O)COc1ccc(Cl)c(F)c1)CC2` [Compound 562, methyl (2S)-1,4-bis[2-(4-chloro-3-fluorophenoxy)acetamido]bicyclo[2.2.2]octane-2-carboxylate], the EC50 is less than 10 nM.
Take `COC(=O)[C@@H]1CC2(NC(=O)COc3ccc(Cl)c(F)c3)CCC1(NC(=O)COc1ccc(Cl)c(F)c1)CC2` [Compound 563, methyl (2R)-1,4-bis[2-(4-chloro-3-fluorophenoxy)acetamido]bicyclo[2.2.2]octane-2-carboxylate]: the EC50 was less than 10 nM.
Next, `O=C(COc1ccc(Cl)c(F)c1)NC12CCC(OCc3ccc(Cl)cc3)(CC1)CC2=O` [Compound 564, 2-(4-chloro-3-fluorophenoxy)-N-{4-[(4-chlorophenyl)methoxy]-2-oxobicyclo[2.2.2]octan-1-yl}acetamide]: more than 2000 nM.
On to `O=C(COc1ccc(Cl)c(F)c1)NC12CCC(OCc3ccc(Cl)cc3)(CC1)CC2O` (centres unmarked) [Compound 565, 2-(4-chloro-3-fluorophenoxy)-N-{4-[(4-chlorophenyl)methoxy]-2-hydroxybicyclo[2.2.2]octan-1-yl}acetamide], for which the EC50 lay within 500 to 2000 nM.
Consider `CC(C)(O)C1CC2(NC(=O)COc3ccc(Cl)c(F)c3)CCC1(NC(=O)COc1ccc(Cl)c(F)c1)CC2` (centres unmarked) [Compound 566, N,N′-[2-(2-hydroxypropan-2-yl)bicyclo[2.2.2]octane-1,4-diyl]bis[2-(4-chloro-3-fluorophenoxy)acetamide]], for which the EC50 fell in the range of 10 to 50 nM.
Consider `O=C(COc1ccc(Cl)c(F)c1)NC12CCC(OCc3ccccc3)(CC1)CC2O` (centres unmarked) [Compound 567, N-[4-(benzyloxy)-2-hydroxybicyclo[2.2.2]octan-1-yl]-2-(4-chloro-3-fluorophenoxy)acetamide], for which the EC50 lay in the range of 500 to 2000 nM.
On to `O=C(COc1ccc(Cl)c(F)c1)NC12CCC(NC(=O)COc3ccc(Cl)c(F)c3)(CC1)C(CO)C2` (centres unmarked) [Compound 568, N,N′-[2-(hydroxymethyl)bicyclo[2.2.2]octane-1,4-diyl]bis[2-(4-chloro-3-fluorophenoxy)acetamide]], for which the EC50 was less than 10 nM.
Regarding `COC(=O)C1CC2(NC(=O)COc3ccc(Cl)c(F)c3)CCC1(NC(=O)COc1ccc(Cl)c(F)c1)CC2` (centres unmarked) [Compound 569, methyl 1,4-bis[2-(4-chloro-3-fluorophenoxy)acetamido]bicyclo[2.2.2]octane-2-carboxylate], the EC50 is less than 10 nM.
With `O=C(COc1ccc(Cl)c(F)c1)NC12CCC(NC(=O)COc3cc(F)c(Cl)cc3Br)(CC1)C(Br)C2=O` (centres unmarked) [Compound 570, 2-(2-bromo-4-chloro-5-fluorophenoxy)-N-{2-bromo-4-[2-(4-chloro-3-fluorophenoxy)acetamido]-3-oxobicyclo[2.2.2]octan-1-yl}acetamide], the EC50 was in the range of 50 to 250 nM.
For `O=C(COc1ccc(Cl)c(F)c1)NC12CCC(NC(=O)COc3ccc(Cl)c(F)c3)(CC1)C(Br)C2=O` (centres unmarked) [Compound 572, N,N′-(2-bromo-3-oxobicyclo[2.2.2]octane-1,4-diyl)bis[2-(4-chloro-3-fluorophenoxy)acetamide]], the concentration for a half-maximal effect (EC50) is 10 to 50 nM.
As for `O=C(COc1ccc(Cl)c(F)c1)NC1CCC2(NC(=O)COc3ccc(Cl)c(F)c3)CCC1C2` (centres unmarked) [Compound 573, N,N′-(bicyclo[3.2.1]octane-1,4-diyl)bis[2-(4-chloro-3-fluorophenoxy)acetamide]], the EC50 is less than 10 nM.
For `O=C(COc1ccc(Cl)c(O)c1)NC12CCC(NC(=O)COc3ccc(Cl)c(F)c3)(CC1)[C@@H](O)C2` [Compound 574, 2-(4-chloro-3-fluorophenoxy)-N-{(2S)-4-[2-(4-chloro-3-hydroxyphenoxy)acetamido]-2-hydroxybicyclo[2.2.2]octan-1-yl}acetamide], the EC50 was less than 10 nM.
Turning to `Cc1cnc(OCC(=O)NC23CCC(NC(=O)COc4ccc(Cl)c(F)c4)(CC2)[C@@H](O)C3)s1` [Compound 575, 2-(4-chloro-3-fluorophenoxy)-N-[(2S)-2-hydroxy-4-{2-[(5-methyl-1,3-thiazol-2-yl)oxy]acetamido}bicyclo[2.2.2]octan-1-yl]acetamide], the half-maximal effective concentration (EC50) is more than 2000 nM.
In the case of `O=C(COc1ccc(Cl)c(F)c1)NC12CCC(NC(=O)NCc3ccc(Cl)c(F)c3)(CC1)C[C@@H]2O` [Compound 576, 2-(4-chloro-3-fluorophenoxy)-N-[(2S)-4-({[(4-chloro-3-fluorophenyl)methyl]carbamoyl}amino)-2-hydroxybicyclo[2.2.2]octan-1-yl]acetamide], the EC50 lay in the range of 10 to 50 nM.
As for `O=C(COc1nccs1)NC12CCC(NC(=O)COc3ccc(Cl)c(F)c3)(CC1)[C@@H](O)C2` [Compound 577, 2-(4-chloro-3-fluorophenoxy)-N-[(2S)-2-hydroxy-4-{2-[(1,3-thiazol-2-yl)oxy]acetamido}bicyclo[2.2.2]octan-1-yl]acetamide], the EC50 was more than 2000 nM.
For `O=C(COc1nc2c(s1)CCCC2)NC12CCC(NC(=O)COc3ccc(Cl)c(F)c3)(CC1)[C@@H](O)C2` [Compound 578, 2-(4-chloro-3-fluorophenoxy)-N-[(2S)-2-hydroxy-4-{2-[(4,5,6,7-tetrahydro-1,3-benzothiazol-2-yl)oxy]acetamido}bicyclo[2.2.2]octan-1-yl]acetamide], the concentration for a half-maximal effect (EC50) is more than 2000 nM.
On to `O=C(COc1ccc(Cl)cc1)NC12CC(NC(=O)COc3ccc4c(c3)OC(F)(F)O4)(C1)C2` [Compound 580, 2-(4-chlorophenoxy)-N-(3-{2-[(2,2-difluoro-2H-1,3-benzodioxol-5-yl)oxy]acetamido}bicyclo[1.1.1]pentan-1-yl)acetamide], for which the half-maximal effective concentration (EC50) is less than 10 nM.
Under `O=C(COc1ccc(F)cc1)NC12CCC(NC(=O)COc3ccc(Cl)c(Cl)c3)(CC1)[C@@H](O)C2` [Compound 581, 2-(3,4-dichlorophenoxy)-N-{(2S)-4-[2-(4-fluorophenoxy)acetamido]-2-hydroxybicyclo[2.2.2]octan-1-yl}acetamide] stands less than 10 nM.
Consider `O=C(COc1ccc(Cl)cc1)NC12CCC(NC(=O)COc3ccc(Cl)c(Cl)c3)(CC1)[C@@H](O)C2` [Compound 582, 2-(4-chlorophenoxy)-N-{(3S)-4-[2-(3,4-dichlorophenoxy)acetamido]-3-hydroxybicyclo[2.2.2]octan-1-yl}acetamide], for which the EC50 is less than 10 nM.
